Legend:
[1] = system: DMBA-induced rat mammary carcinoma; experiment: DMBA-induced rat mammary carcinoma model; type: in vivo; conditions: initial tumor weight = 100%
Description: (§1) • In vivo Experiment: DMBA-induced rat mammary carcinoma model • Experimental Animal: Sprague-Dawley rat, female • Procedure: The mammary carcinoma was induced by a single oral dose of DMBA. The animals received perifosine from day 0 to day 14 and were observed up to day 42. The weight of the tumor mass was estimated by palpation and comparison with plastic models.
as §1, with “eight” for “weight”, “tumor was” for “tumor”

tumor cells = conditions: Patel et al. 2002; cited from earlier work
[2] = Example 3, female Sprague-Dawley rat, Perifosine 14×6.81 mg/kg p.o., Adriamycin 4×2.15 mg/kg i.p.
[3] = Example 1, female Sprague-Dawley rat, Perifosin 14×6.81 mg/kg p.o., Cis-platinum 4×1 mg/kg i.p.
[4] = Example 2, female Sprague-Dawley rat, Perifosine 14×6.81 mg/kg p.o., Cyclophosphamide 100 mg/kg i.v.

| Structure (SMILES) | Day 21, Change in % (tumor weight) [1, 2] [%] | Day 21, Change in % (tumor weight) [1, 3] [%] | Day 21, Change in % (tumor weight) [1, 4] [%] | cell cycle block (tumor cells) |
| --- | --- | --- | --- | --- |
| COc1cccc2c1C(=O)c1c(O)c3c(c(O)c1C2=O)C[C@@](O)(C(=O)CO)C[C@@H]3O[C@H]1C[C@H](N)[C@H](O)[C@H](C)O1 [Adriamycin, reference compound] | 781 |  |  |  |
| N.N.[Cl][Pt][Cl] [Cis-platinum, reference compound] |  | 410 |  |  |
| O=P1(N(CCCl)CCCl)NCCCO1 (stereo not shown) [Cyclophosphamide, reference compound] |  |  | 500 |  |
| CCCCCCCCCCCCCCCCCCOP(=O)([O-])OC1CC[N+](C)(C)CC1 [Perifosin (D-21266), perifosine] | −25 | −25 | −25 | blocks tumor cells in the G1-S and G2-M phase of the cell cycle |

— patent publication US8551977B2, “Use of perifosine in combination with antimetabolites for the treatment of benign and malignant oncoses in humans and mammals” (AEterna Zentaris GmbH, priority 2002, dated 2013)
